Results on 30 compounds are retold here after PMC9774939, “Optimization of Pyrazole Compounds as Antibiotic Adjuvants Active against Colistin- and Carbapenem-Resistant Acinetobacter baumannii” (Antibiotics, 2022).

A word on the melting point: it is the temperature of the solid-liquid transition.

The test system of one series is Escherichia coli CCUG^T. Put plainly: MAC determination in the presence of subinhibitory colistin. The format is cell-based. Details: key to MAC Eco: -: No synergistic activity. The conditions noted are these: for MAC Eco: in the presence of 0.5 × MIC colistin; for MIC/MAC Ratio Eco: minimal ratio of MIC of compound alone to MAC with 0.5 × MIC colistin. The procedure: (§1) The minimum inhibitory concentration (MIC) and minimum bactericidal concentration (MBC) of the compounds were determined in triplicate using Mueller–Hinton broth and a bacterial inoculum of 5 × 10^5 CFU/mL, as recommended by the CLSI [26]. The minimum antibacterial concentration (MAC) of the compounds was determined in the presence of a fixed and subinhibitory concentration of colistin (as mentioned above).

Series [1] deals with Klebsiella pneumoniae ATCC 13833. Described as above. The format is cell-based. The conditions noted are these: for MAC Kpn: in the presence of 0.5 × MIC colistin; for MIC/MAC Ratio Kpn: minimal ratio of MIC of compound alone to MAC with 0.5 × MIC colistin. The protocol: as §1
For series [2], the system named is Acinetobacter baumannii ATCC 17978. Described as above. Also on record: key to MAC Aba: -: No synergistic activity. The series is classed as cell-based. The following applies: for MAC Aba: in the presence of 0.5 × MIC colistin; for MIC/MAC Ratio Aba: minimal ratio of MIC of compound alone to MAC with 0.5 × MIC colistin. The protocol: as §1

Regarding `Cc1c(C(=O)NCc2ccc3c(c2)OCO3)nn(-c2ccc(Cl)c(Cl)c2)c1-n1c(C)ccc1C` [Compound 38, N-(Benzo[d][1,3]dioxol-5-ylmethyl)-1-(3,4-dichlorophenyl)-4-methyl-5-(2,5-dimethyl-1H-pyrrol-1-yl)-1H-pyrazole-3-carboxamide], the melting point lay in the range of 141 to 145 °C. In the case of `CCOC(=O)[C@@H](NC(=O)c1cnn(-c2ccccc2)c1-n1cccc1)C(C)C` [Compound 13, Ethyl (S)-3-Methyl-2-[[[1-phenyl-5-(1H-pyrrol-1-yl)-1H-pyrazol-4-yl]carbonyl]amino]butanoate], the melting point was in the range of 75 to 78 °C. For the same compound, in the series on Escherichia coli CCUG^T, the “MAC Eco” value was 64 µg/mL and the “MIC/MAC Ratio Eco” value came to 8. Moreover, in series [1], the “MAC Kpn” value came out at 32 µg/mL and the “MIC/MAC Ratio Kpn” value is 16. Further, the “MAC Aba” value in series [2] is “-”. The compound `CN1CCN(C(=O)c2cnn(C)c2-n2cccc2)CC1` [Compound 3, (4-Methylpiperazin-1-yl)[1-methyl-5-(1H-pyrrol-1-yl)-1H-pyrazol-4-yl]methanone] displayed a melting point of 109 to 111 °C. On to `Cc1c(C(=O)NC23CC4CC(CC(O)(C4)C2)C3)nn(-c2ccccc2)c1-n1cccc1` [Compound 27, N-(Adamantan-3-ol-1-yl)-4-methyl-1-phenyl-5-(1H-pyrrol-1-yl)-1H-pyrazole-3-carboxamide], for which the melting point was 137 to 138 °C. Further, in the series on Escherichia coli CCUG^T, the “MAC Eco” value is on record as 32 µg/mL and the “MIC/MAC Ratio Eco” value worked out at 16. In addition, in series [1], the “MAC Kpn” value is reported as 32 µg/mL and the “MIC/MAC Ratio Kpn” value is on record as 16. Moreover, the “MAC Aba” value in series [2] was “-”. Compound `Cc1c(C(=O)Nc2nc(-c3ccc(F)cc3)cs2)nn(-c2ccc(Cl)c(Cl)c2)c1-n1cccc1` [Compound 37, 1-(3,4-Dichlorophenyl)-N-[4-(4-fluorophenyl)thiazol-2-yl]-4-methyl-5-(1H-pyrrol-1-yl)-1H-pyrazole-3-carboxamide] displayed a melting point of 207 to 210 °C.

`Cc1c(C(=O)NCc2ccc(F)cc2)nn(-c2ccc(Cl)c(Cl)c2)c1-n1cccc1`: the melting point is 148 to 151 °C. The same measure, in the same setting: the figure for `COC(=O)CNC(=O)c1cnn(-c2ccccc2)c1-n1cccc1` [Compound 11, Methyl [[[1-Phenyl-5-(1H-pyrrol-1-yl)-1H-pyrazol-4-yl]carbonyl]amino]acetate] is 139 to 141 °C. Still for that read-out and setting: the figure for `COC(=O)c1cccc(NC(=O)c2nn(-c3ccc(Cl)cc3)c(-n3cccc3)c2C)c1` [Compound 41, Methyl 3-[[[1-(4-Chlorophenyl)-4-methyl-5-(1H-pyrrol-1-yl)-1H-pyrazol-3-yl]carbonyl]amino]benzoate] is 158 to 160 °C; for `COC(=O)c1ccccc1NC(=O)c1nn(-c2ccc(Cl)cc2)c(-n2cccc2)c1C` [Compound 43, Methyl 2-[[[1-(4-Chlorophenyl)-4-methyl-5-(1H-pyrrol-1-yl)-1H-pyrazol-3-yl]carbonyl]amino]benzoate] it is 217 to 219 °C; for `CCOC(=O)[C@H](C)NC(=O)CNC(=O)c1cnn(-c2ccccc2)c1-n1cccc1` [Compound 18, N-[N-[[1-Phenyl-5-(1H-pyrrol-1-yl)-1H-pyrazol-4-yl]carbonyl]glycyl]-L-alanine Ethyl Ester] it is 116 to 117 °C.

As to `N#Cc1c(C(=O)NCc2ccncc2)nn(-c2ccc(Cl)cc2)c1-n1cccc1` [Compound 35, 1-(4-Chlorophenyl)-4-cyano-N-(pyridin-4-ylmethyl)-5-(1H-pyrrol-1-yl)-1H-pyrazole-3-carboxamide], the melting point is 85 to 88 °C. The compound `Cc1c(C(=O)NCc2ccc3c(c2)OCO3)nn(-c2ccc(Cl)cc2)c1-n1cccc1` [Compound 29, N-(Benzo[d][1,3]dioxol-5-ylmethyl)-1-(4-chlorophenyl)-4-methyl-5-(1H-pyrrol-1-yl)-1H-pyrazole-3-carboxamide] showed a melting point of 144 to 148 °C.

The compound `CC(C)(C)OC(=O)Nc1c(C(=O)NCc2ccc(-c3ccc(OC(F)(F)F)cc3)cn2)cnn1-c1ccc([N+](=O)[O-])cc1` [Compound 22, 5-(tert-Butoxycarbonylamino)-1-(4-nitrophenyl)-N-[[5-(4-trifluoromethoxyphenyl)pyridin-2-yl]methyl]-1H-pyrazole-4-carboxamide] returned a melting point of 197 to 199 °C. Besides, the “MAC Eco” value with Escherichia coli CCUG^T was “-”. In addition, in series [1], the “MAC Kpn” value is listed as 64 µg/mL and the “MIC/MAC Ratio Kpn” value came to 8. Also, in series [2], the “MAC Aba” value is reported as 64 µg/mL and the “MIC/MAC Ratio Aba” value is recorded as 8. The compound `CCOC(=O)N1CCN(C(=O)c2nn(-c3ccccc3)c(-n3cccc3)c2C)CC1` [Compound 26, (4-Ethoxycarbonylpiperazin-1-yl)[4-methyl-1-phenyl-5-(1H-pyrrol-1-yl)-1H-pyrazol-3-yl]methanone] showed a melting point of 130 to 131 °C.

Take `Cc1c(C(=O)N2CCOCC2)nn(-c2ccc(Cl)cc2)c1-n1cccc1` [Compound 30, [1-(4-Chlorophenyl)-4-methyl-5-(1H-pyrrol-1-yl)-1H-pyrazol-3-yl](morpholin-4-yl)methanone]: the melting point lay in the range of 174 to 177 °C. Same read-out and setting: the figure for `N#Cc1c(C(=O)NC23CC4CC(CC(C4)C2)C3)nn(-c2ccccc2)c1-n1cccc1` is 227 to 229 °C.

`Cc1c(C(=O)N(C)Cc2ccccc2)nn(-c2ccc(Cl)cc2)c1-n1cccc1` [Compound 34, N-Benzyl-1-(4-chlorophenyl)-N,4-dimethyl-5-(1H-pyrrol-1-yl)-1H-pyrazole-3-carboxamide]: the melting point was in the range of 104 to 108 °C.

Take `O=C(Nc1ccc(Cl)cc1)c1cnn(-c2ccccc2)c1-n1cccc1` [Compound 6, N-(4-Chlorophenyl)-1-phenyl-5-(1H-pyrrol-1-yl)-1H-pyrazole-4-carboxamide]: the melting point is 197 to 198 °C.

`O=C(c1cnn(-c2ccccc2)c1-n1cccc1)N1CCN(c2ncccn2)CC1` [Compound 7, [1-Phenyl-5-(1H-pyrrol-1-yl)-1H-pyrazol-4-yl][4-(pyrimidin-2-yl)piperazin-1-yl]methanone] displayed a melting point of 218 to 219 °C. In turn, `CCOC(=O)[C@H](C)NC(=O)c1cnn(-c2ccccc2)c1-n1cccc1` [Compound 12, Ethyl (S)-2-[[[1-Phenyl-5-(1H-pyrrol-1-yl)-1H-pyrazol-4-yl]carbonyl]amino]propanoate] showed a melting point of 90 to 92 °C.

Compound `O=C(NN1CCCCC1)c1cnn(-c2ccccc2)c1-n1cccc1` [Compound 5, 1-Phenyl-N-(piperidin-1-yl)-5-(1H-pyrrol-1-yl)-1H-pyrazole-4-carboxamide] registered a melting point of 165 to 167 °C. The same measure, in the same setting: to `CC(C)(C)OC(=O)Nc1c(C(=O)NCc2ccc(Br)cc2)cnn1-c1ccc([N+](=O)[O-])cc1` [Compound 21, N-(4-Bromobenzyl)-5-(tert-butoxycarbonylamino)-1-(4-nitrophenyl)-1H-pyrazole-4-carboxamide] belongs 169 to 171 °C; to `Cc1c(C(=O)NCc2ccncc2)nn(-c2ccc(Cl)cc2)c1-n1cccc1` [Compound 33, 1-(4-Chlorophenyl)-4-methyl-N-(pyridin-4-ylmethyl)-5-(1H-pyrrol-1-yl)-1H-pyrazole-3-carboxamide], 189 to 193 °C.

`CC(C)(C)OC(=O)[C@H](Cc1ccccc1)NC(=O)c1nn(-c2ccccc2)c(-n2cccc2)c1C#N` [Compound 25, tert-Butyl (S)-3-Phenyl-2-[[[4-cyano-1-phenyl-5-(1H-pyrrol-1-yl)-1H-pyrazol-3-yl]carbonyl]amino]propanoate] returned a melting point of 93 to 94 °C. Regarding `Cc1c(C(=O)N(CCO)Cc2ccccc2)nn(-c2ccc(Cl)cc2)c1-n1cccc1` [Compound 31, N-Benzyl-1-(4-chlorophenyl)-N-(2-hydroxyethyl)-4-methyl-5-(1H-pyrrol-1-yl)-1H-pyrazole-3-carboxamide], in the series with Escherichia coli CCUG^T, the “MAC Eco” value came out at 32 µg/mL and the “MIC/MAC Ratio Eco” value was 16. For the same compound, in series [1], the “MAC Kpn” value amounted to 16 µg/mL and the “MIC/MAC Ratio Kpn” value was 32. Besides, in series [2], the “MAC Aba” value worked out at 32 µg/mL and the “MIC/MAC Ratio Aba” value was 16.

The compound `O=C(NC12CC3CC(CC(O)(C3)C1)C2)c1cc(-n2cccc2)n(-c2ccccc2)n1` [Compound 23, N-(Adamantan-3-ol-1-yl)-1-phenyl-5-(1H-pyrrol-1-yl)-1H-pyrazole-3-carboxamide] displayed a melting point of 217 to 221 °C. Same read-out and setting: the figure for `Cc1c(C(=O)Nc2ccc(S(N)(=O)=O)cc2)nn(-c2ccc(Cl)cc2)c1-n1cccc1` [Compound 46, 1-(4-Chlorophenyl)-4-methyl-5-(1H-pyrrol-1-yl)-N-(4-sulfamoylphenyl)-1H-pyrazole-3-carboxamide] is 238 to 239 °C; for `CN1CCN(C(=O)c2cnn(-c3ccccc3)c2-n2cccc2)CC1` [Compound 4, (4-Methylpiperazin-1-yl)[1-phenyl-5-(1H-pyrrol-1-yl)-1H-pyrazol-4-yl]methanone] it is 156 to 158 °C; for `CCOC(=O)c1ccc(NC(=O)c2nn(-c3ccc(Cl)cc3)c(-n3cccc3)c2C)cc1` [Compound 32, Ethyl 4-[[[1-(4-Chlorophenyl)-4-methyl-5-(1H-pyrrol-1-yl)-1H-pyrazol-3-yl]carbonyl]amino]benzoate] it is 168 to 170 °C.

`CSc1ccc(NC(=O)c2nn(-c3ccc(Cl)cc3)c(-n3cccc3)c2C)cc1` [Compound 48, 1-(4-Chlorophenyl)-N-(4-methylthiophenyl)-4-methyl-5-(1H-pyrrol-1-yl)-1H-pyrazole-3-carboxamide] came in with a melting point of 102 to 105 °C.
